Test results reported in patent publication US7643943B2, “Methods for monitoring drug activities in vivo” (Wyeth LLC, priority 2003, dated 2010).

Tests used:
[1] = human, in vivo
Experimental: (§1) In a randomized, double-blind, multicenter trial, once-weekly intravenous doses of 25-, 75-, or 250-mg of CCI-779 were administered to patients with advanced renal cancer that were either previously treated, or untreated and not appropriate candidates for high dose interlukin-2 therapy. Whole blood for CCI-779 and metabolite concentrations was drawn for population pharmacokinetic analysis, and Bayesian-predicted area under the concentration-time curves for parent drug (AUC), parent plus metabolite (AUCsum), and cumulative AUC and AUCsum were derived.
(§2) For CCI-779 clearance, factors for dose, attenuation of exposure with multiple-dose, and effect of body surface area were included.
(§3) The following examples were based on a randomized, double-blind, multicenter, outpatient phase 2 study of CCI-779 administered by 30 minute intravenous infusion (via an automatic dispensing pump) in patients with advanced RCC. Eligible patients were randomly assigned to treatment in a 1:1:1 ratio to receive 25 mg, 75 mg, or 250 mg of CCI-779 weekly until evidence of disease progression.
(§4) Full pharmacokinetic profiling was planned in a subset of patients, with remaining patients to provide sparse sampling.
(§5) The bioanalytical method for CCI-779 was performed using whole blood in a liquid chromatography/tandem mass spectrometry (LC/MS/MS) procedure with deuterated internal standard.
(§6) In order to characterize the pharmacokinetic profiles of patients providing sparse blood sampling, fully and sparsely sampled patient data were analyzed collectively using a population pharmacokinetic method and the NONMEM application (version 1.0, Revision 5.0 on Windows NT 4.0 computer with Pentium processor, NONMEM Project Group, University of California at San Francisco, Calif.). […] Data were therefore modeled separately and segregated by analyte into two separate data sets with dose, time/duration of administration, and demographic information. […] Construction of the NONMEM infile was performed using SAS (version 8.1) on a Sun Microsystems mainframe computer with Sun OS 5.8. […] In both cases, the model-derived value for AUC for a given patient and analyte were obtained from the quotient of CCI-779 Dose/Clearance (CL), in which CL was obtained from Bayesian estimation and the POSTHOC option of NONMEM.
(§7) During model building, an exponential error model was applied to the kinetic model.

clinical [2] = settings: human, in vivo, iv
Source text: The pharmacokinetics of CCI-779 is being studied in patients with cancer receiving CCI-779 either alone or in combination with other chemotherapeutic agents following intravenous administration. Intravenous dosage schedules previously investigated include a cyclical schedule (daily for 5 days every two weeks) and a once-weekly regimen. […] The following examples evaluated the safety, efficacy, and pharmacokinetic/pharmacodynamic relationship to clinical response of three doses of CCI-779, when administered to patients with advanced, refractory renal cell cancer (RCC).

clinical [3] = settings: human, in vivo
Experimental: as §1, §2, §3, §4, §5, §6, §7
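Throughout, for DE on CL (θ6), parameter estimate: population pharmacokinetic analysis in NONMEM of pooled full and sparse blood sampling from patients, exponential error on kinetic parameters, proportional residual error, bootstrap check over 1,000 resamples.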
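Throughout, for DE on V3 (θ7), parameter estimate: population pharmacokinetic analysis in NONMEM of pooled full and sparse blood sampling from patients, exponential error on kinetic parameters, proportional residual error, bootstrap check over 1,000 resamples.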
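Throughout, for Dose effect on CL (θ7), bootstrap sample median: population pharmacokinetic analysis in NONMEM of pooled full and sparse blood sampling from patients, exponential error on kinetic parameters, proportional residual error, bootstrap check over 1,000 resamples.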
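Throughout, for Dose effect on V3 (θ8), bootstrap sample median: population pharmacokinetic analysis in NONMEM of pooled full and sparse blood sampling from patients, exponential error on kinetic parameters, proportional residual error, bootstrap check over 1,000 resamples.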

Structure (SMILES): CO[C@H]1C[C@@H]2CC[C@@H](C)[C@@](O)(O2)C(=O)C(=O)N2CCCC[C@H]2C(=O)O[C@H]([C@H](C)C[C@@H]2CC[C@@H](O)[C@H](OC)C2)CC(=O)[C@H](C)/C=C(\C)[C@@H](O)[C@@H](OC)C(=O)[C@H](C)C[C@H](C)/C=C/C=C/C=C/1C [sirolimus]
- DE on CL (θ6), parameter estimate [1]: 0.422
- DE on V3 (θ7), parameter estimate [1]: 0.302
- Dose effect on CL (θ7), bootstrap sample median [1]: 0.412
- Dose effect on V3 (θ8), bootstrap sample median [1]: 0.231
- HCT effect on V3 (θ8), parameter estimate [1]: 0.719
- Hematocrit effect on V3 (θ9), bootstrap sample median [1]: 0.768
- Inter-Patient Variability % on CL [1]: 63.7%
- Inter-Patient Variability % on Ka [1]: 34.6%
- Inter-Patient Variability % on V2 [1]: 164%
- Inter-Patient Variability % on V3 [1]: 22.8%
- Intersubject variability on CL (ω^21), bootstrap sample median [1]: 0.545
- Intersubject variability on CL (ω^21), final model parameter estimate [1]: 0.406
- Intersubject variability on V2 (ω^22), bootstrap sample median [1]: 1.418
- Intersubject variability on V2 (ω^22), final model parameter estimate [1]: 2.72
- Intersubject variability on V3 (ω^23), final model parameter estimate [1]: 0.052
- Intersubject variability on ka (ω^24), bootstrap sample median [1]: 0.316
- Intersubject variability on ka (ω^24), final model parameter estimate [1]: 0.120
- Ka (θ5), parameter estimate [1]: 0.087 h⁻¹
- Proportional error (ε^2), bootstrap sample median [1]: 0.212
- Proportional error (ε^2), final model parameter estimate [1]: 0.0543
- Q (θ3), bootstrap sample median [1]: 27.5 L/h
- V2 (θ2), bootstrap sample median [1]: 8.24 L
- V3 (θ4), bootstrap sample median [1]: 11.6 L
- V3 (θ4), parameter estimate [1]: 12.9 L
- ka (θ5), bootstrap sample median [1]: 0.0616 h⁻¹
- Q (θ3), parameter estimate ([1]; iv): 44.1 L/h
- V2 (θ2), parameter estimate ([1]; iv): 10.4 L
- CL (θ1), parameter estimate ([1]; iv, 250 mg): 2.05 L/h
- half-life (clinical [2]): 60 to 70 h
- clearance (clinical [3]): 33.2 mL/min
